Source: patent US9211310B2, “Use of a Chinese medicine composition in preparing medicaments for treating secondary prevention of myocardial infarction” (TASLY PHARMACEUTICAL GROUP CO., LTD, priority 2010, dated 2015)

System: patients after acute myocardial infarction
Assay: Life quality, Seattle Angina Questionnaire (SAQ), same clinical trial
Format: in vivo, human
Details: PP
Text: 3508 patients who were in accordance with the diagnostic standards of AMI for 28 days to 2 years and differentiated as Qi deficiency and blood stagnation syndrome by TCM were studied. 0.5 g Chinese medicine composition prepared by the method of EXAMPLE 1 (Coded as QSYQ) was administrated half an hour after meal, 3 times per day.
There were 19 questions in the Seattle angina questionnaire (SAQ), including 5 parts: physical limitation (PL), anginal stability (AS), anginal frequency (AF), treatment satisfaction (TS) and disease perception (DP). After being given necessary explanation by doctors, the questions were answered independently by patients.
They included the overall survival time, angina pectoris score, TCM symptom score and life quality score, where angina pectoris score, TCM symptom score and life quality score were evaluated at randomization, in 1st, 3rd, 6th, 9th, 12th month after treatment and 18th month after follow-up.
All evaluation results of SAQ were described during the period of observation, and Wilcoxon rank sum test was used for inter-group comparison.
The evaluation results in the SAQ were depicted in different observations, and inter-group comparison was tested by Wilcoxon Rank-sum test.

With `CC(=O)Oc1ccccc1C(=O)O` [Control group, aspirine] the “SAQ Question 1-1 Moderately limited, percent of patients” value (6 months after treatment) was “(0.28%)”, the “SAQ Question 1-1 Not limited, number of patients” value (6 months after treatment) was 1368 and the “SAQ Question 1-1 Not limited, percent of patients” value (6 months after treatment) was “(94.34%)”. For the same compound, the “SAQ Question 1-1 Other reasons, number of patients” value (6 months after treatment) was 3, the “SAQ Question 1-1 Other reasons, percent of patients” value (6 months after treatment) was “(0.21%)” and the “SAQ Question 1-1 Severely limited, number of patients” value (6 months after treatment) was 0. The “SAQ Question 1-1 Severely limited, percent of patients” value (6 months after treatment) was “(0.00%)”, the “SAQ Question 1-1 Slightly limited, number of patients” value (6 months after treatment) was 53 and the “SAQ Question 1-1 Slightly limited, percent of patients” value (6 months after treatment) was “(3.66%)”. For the same compound, the “SAQ Question 1-2 Mildly limited, number of patients” value (6 months after treatment) was 19, the “SAQ Question 1-2 Mildly limited, percent of patients” value (6 months after treatment) was “(1.31%)” and the “SAQ Question 1-2 Moderately limited, number of patients” value (6 months after treatment) was 6. For the same compound, the “SAQ Question 1-2 Moderately limited, percent of patients” value (6 months after treatment) was “(0.41%)”, the “SAQ Question 1-2 Not limited, number of patients” value (6 months after treatment) was 1352 and the “SAQ Question 1-2 Not limited, percent of patients” value (6 months after treatment) was “(93.24%)”. The “SAQ Question 1-2 Other reasons, number of patients” value (6 months after treatment) was 6, the “SAQ Question 1-2 Other reasons, percent of patients” value (6 months after treatment) was “(0.41%)” and the “SAQ Question 1-2 Severely limited, number of patients” value (6 months after treatment) was 1. For the same compound, the “SAQ Question 1-2 Severely limited, percent of patients” value (6 months after treatment) was “(0.07%)”, the “SAQ Question 1-2 Slightly limited, number of patients” value (6 months after treatment) was 66 and the “SAQ Question 1-2 Slightly limited, percent of patients” value (6 months after treatment) was “(4.55%)”. The “SAQ Question 1-6: Mildly limited, patients (%)” value (6 months after treatment) was “(16.24%)”, the “SAQ Question 1-6: Moderately limited, patients (%)” value (6 months after treatment) was “(12.07%)” and the “SAQ Question 1-6: Not limited, patients (%)” value (6 months after treatment) was “(34.35%)”. The “SAQ Question 1-6: Other reasons, patients (%)” value (6 months after treatment) was “(1.11%)”, the “SAQ Question 1-6: Severely limited, patients (%)” value (6 months after treatment) was “(3.19%)” and the “SAQ Question 1-6: Slightly limited, patients (%)” value (6 months after treatment) was “(33.03%)”. The “SAQ Question 1-7: Mildly limited, patients (%)” value (6 months after treatment) was “(21.45%)”, the “SAQ Question 1-7: Moderately limited, patients (%)” value (6 months after treatment) was “(12.58%)” and the “SAQ Question 1-7: Not limited, patients (%)” value (6 months after treatment) was “(14.47%)”. For the same compound, the “SAQ Question 1-7: Other reasons, patients (%)” value (6 months after treatment) was “(3.70%)”, the “SAQ Question 1-7: Severely limited, patients (%)” value (6 months after treatment) was “(14.88%)” and the “SAQ Question 1-7: Slightly limited, patients (%)” value (6 months after treatment) was “(32.91%)”. For the same compound, the “SAQ Question 1-8: Mildly limited, patients (%)” value (6 months after treatment) was “(25.91%)”, the “SAQ Question 1-8: Moderately limited, patients (%)” value (6 months after treatment) was “(16.01%)” and the “SAQ Question 1-8: Not limited, patients (%)” value (6 months after treatment) was “(10.81%)”. For the same compound, the “SAQ Question 1-8: Other reasons, patients (%)” value (6 months after treatment) was “(3.79%)”, the “SAQ Question 1-8: Severely limited, patients (%)” value (6 months after treatment) was “(18.96%)” and the “SAQ Question 1-8: Slightly limited, patients (%)” value (6 months after treatment) was “(24.51%)”. For the same compound, the “8th question: Mostly satisfied, patients (%)” value (6 months after treatment, second line of the scale) was “(1.58%)”, the “8th question: Dissatisfied, patients (%)” value (9 months after treatment) was “(0.28%)” and the “8th question: Highly satisfied, patients (%)” value (9 months after treatment) was “(23.18%)”. For the same compound, the “8th question: Mostly dissatisfied, patients (%)” value (9 months after treatment) was “(1.18%)”, the “8th question: Mostly satisfied, patients (%)” value (9 months after treatment) was “(58.78%)” and the “8th question: Partly satisfied, patients (%)” value (9 months after treatment) was “(16.59%)”. The “9th question: Few, patients (%)” value (9 months after treatment) was “(38.61%)”, the “9th question: Mild, patients (%)” value (9 months after treatment) was “(32.78%)” and the “9th question: Moderate, patients (%)” value (9 months after treatment) was “(7.01%)”. For the same compound, the “9th question: Severe, patients (%)” value (9 months after treatment) was “(0.35%)”, the “9th question: Uneffective, patients (%)” value (9 months after treatment) was “(21.25%)” and the “10th question: Dissatisfied, patients (%)” value (9 months after treatment) was “(18.81%)”. The “10th question: Highly satisfied, patients (%)” value (9 months after treatment) was “(6.18%)”, the “10th question: Mostly dissatisfied, patients (%)” value (9 months after treatment) was “(19.99%)” and the “10th question: Mostly satisfied, patients (%)” value (9 months after treatment) was “(29.22%)”. For the same compound, the “10th question: Partly satisfied, patients (%)” value (9 months after treatment) was “(25.82%)”, the “11th question: Continuously worried, patients (%)” value (9 months after treatment) was “(2.43%)” and the “11th question: No worried, patients (%)” value (9 months after treatment) was “(6.11%)”. The “11th question: Occasionally worried, patients (%)” value (9 months after treatment) was “(42.40%)”, the “11th question: Often worried, patients (%)” value (9 months after treatment) was “(11.73%)” and the “11th question: Seldom worried, patients (%)” value (9 months after treatment) was “(37.34%)”. For the same compound, the “SAQ 4th question, 1-2 times per week: % of patients” value (9 months after treatment) was “(15.99%)”, the “SAQ 4th question, 1-2 times per week: number of patients” value (9 months after treatment) was 230 and the “SAQ 4th question, 1-3 times per week: % of patients” value (9 months after treatment) was “(3.41%)”. For the same compound, the “SAQ 4th question, 1-3 times per week: number of patients” value (9 months after treatment) was 49, the “SAQ 4th question, <1 time per week: % of patients” value (9 months after treatment) was “(14.95%)” and the “SAQ 4th question, <1 time per week: number of patients” value (9 months after treatment) was 215. For the same compound, the “SAQ 4th question, Not used: % of patients” value (9 months after treatment) was “(61.54%)”, the “SAQ 4th question, Not used: number of patients” value (9 months after treatment) was 885 and the “SAQ 4th question, ≧3 times per week: % of patients” value (9 months after treatment) was “(4.03%)”. For the same compound, the “SAQ 4th question, ≧3 times per week: number of patients” value (9 months after treatment) was 58, the “SAQ 4th question, ≧4 times per day: % of patients” value (9 months after treatment) was “(0.07%)” and the “SAQ 4th question, ≧4 times per day: number of patients” value (9 months after treatment) was 1. The “SAQ 5th question, 1-2 times per week: % of patients” value (9 months after treatment) was “(30.04%)”, the “SAQ 5th question, 1-2 times per week: number of patients” value (9 months after treatment) was 432 and the “SAQ 5th question, 1-3 times per day: % of patients” value (9 months after treatment) was “(6.68%)”. For the same compound, the “SAQ 5th question, 1-3 times per day: number of patients” value (9 months after treatment) was 96 and the “SAQ 5th question, <1 time per week: % of patients” value (9 months after treatment) was “(28.65%)”.
